Source: US12358896B2, “LRRK2 inhibitors and methods of making and using thereof” (DENALI THERAPEUTICS INC., priority 2019, dated 2025)

Experiments:
LRRK2 G2019S enzyme = LRRK2 G2019S enzyme (Homo sapiens, UniProt Q5S007, G2019S); assay: LRRK2 G2019S TR-FRET biochemical assay (Biological Example 1); settings: 134 μM ATP, 5 nM LRRK2, LRRKtide substrate
Experimental: • LRRK2 G2019S enzyme • Substrate (LRRKtide) • ATP • TR-FRET dilution buffer • pLRRKtide antibody • 384-well assay plate • DMSO Enzyme Reaction Conditions • 50 mM Tris pH 7.5, 10 mM MgCl2, 1 mM EGTA, 0.01% Brij-35, 2 mM DTT • 5 nM LRRK2 • 134 μM ATP • 60 minute reaction time • 23° C. reaction temperature • 10 μL total reaction volume Detection Reaction Conditions • 1×TR-FRET dilution buffer • 10 mM EDTA • 2 nM antibody • 23° C. reaction temperature • 10 μL total reaction volume
Compounds are prepared by initially diluting to 1 mM with DMSO. 35 μL of reference compound solution, 35 μL of test compound solution, and 35 μL HPE are successively added to the source plate (384-well assay plate, Labcyte). The plates are centrifuged at 2500 rpm for 1 minute and sealed in foil. POD is used to perform a 3.162 fold serial dilution and 100 nL of reference compound solution, test compound solution, HPE and ZPE are transferred to assay plates. The assay plate is centrifuged at 2500 rpm for 1 minute, and sealed with foil.
To perform the enzyme reaction, 5 μL of LRRKtide substrate and kinase mixture in assay buffer is added to all wells of the assay plate. The plate is centrifuged to concentrate the mixture at the bottom of the wells. The assay plate is incubated at 23° C. for 20 minutes. Following incubation, 5 μL of 2×ATP in assay buffer is added to each well, and plates are centrifuged to concentrate the mixture at the bottom of the wells. The plate is incubated at 23° C. for 60 minutes.
To perform the detection of the reaction, EDTA completely mixed in TR-FRET dilution buffer is added to antibody reagent. 10 μL of detection reagent is added to all wells of each well of the assay plate and the plate is centrifuged to concentrate the mixture at the bottom of the wells. The plate is then incubated at 23° C. for 60 minutes. Plates are read on Perkin Elmer Envision 2104 instrument in TR-FRET mode using a 340 nm excitation filter, 520 nm fluorescence emission filter, and 490 or 495 nm terbium emission filter.

[1] = molecular target: T1, FLAG-tagged human LRRK2 with G2019S mutation (Homo sapiens, UniProt Q5S007, G2019S); assay: Inhibition of pSer935 in HEK293 cells with expressed G2019S LRRK2 (Biological Example 4); type: cell-based; settings: transfected 293T cells, 90 minutes compound treatment, MSD readout; read-out: HEK293T LRRK2 G2019S pS935
T1 construct: expressed in transfected cells; host or cells: HEK293 / 293T cells, transient transfection with pCMV-FLAG-G2019S
Experimental: In this assay, inhibition of phosphorylation of LRRK2 at residue serine 935 (pS935) by test compound was determined in HEK293 cells.
HEK293 cells were first transiently transfected with a plasmid harboring FLAG-tagged human LRRK2 cDNA with G2019S mutation (p.G2019S) under the control of CMV promoter for robust overexpression. The levels of phosphorylated Ser935 in G2019S expressing cells with or without compound treatment were measured by MSD using an anti-FLAG capture antibody and a phosho-specific anti-LRRK2 pS935 monoclonal detection antibody. The IC50 was determined by fitting a 10-point dose response data in duplicate with four parameter non-linear regression curve.
(Day 1) 293T cell seeding: 293T cells were seeded (1.4×10^6/well) into each well of a 6-well plate. After two days in culture, the cell number can grow into 5×10^6/well, so N+1 wells were seeded (enough for N 96 well assay plates).
(Day 2) 293T cell transfection: 5 μL of pCMV-FLAG-G2019S or pCMV-FLAG-WT LRRK2 (0.5 μg/μL) was added into 145 μL of DMEM medium, and mixed thoroughly by pipette up and down several times. 15 μL of SuperFect Transfection Reagent was added into samples, mixed thoroughly by pipetting up and down several times, and allowed to equilibrate at room temperature for 5-10 minutes. 0.5 mL of pre-warmed cell culture medium was added into samples, and mixed thoroughly by pipetting up and down several times. 650 μL of the mixture was added dropwise into each well of the 6 well plate, the plate was swirled to mix thoroughly, and incubated in a 37° C. incubator with a humidified atmosphere of 5% CO2 for 20-24 hours.
(Day 3) 293T cells seed into 96 well plates: Cells were harvested and resuspended in cell culture medium at 0.96×10^6 cells/mL density. 50 μL/well cells were plated onto 96-well cell culture plate (48,000 cells/well), and the plates were incubated in a 37° C. incubator with a humidified atmosphere of 5% CO2 for 20-24 hours.
(Day 4) Inhibitor Treatment and Cell Lysis: The compound destination plates were thawed at room temperature and centrifuged at 2000 rpm. 55 μL cell culture medium was added into compound destination plate, and the plate was warmed at 37° C.
50 μL of cell culture medium containing compounds was transferred into cell culture plate. Plates were incubated in a 37° C. incubator with a humidified atmosphere of 5% CO2 for 90 minutes, after which all of compound-containing medium was completely aspirated manually with 300 μL pipette. 100 μL/well of Lysis Buffer was added and the plates sealed, shaken at 4° C. for 30 minutes, and stored at −20° C. until usage.
(Day 5) MSD procedure: 2 μg/25 μL/well of FLAG antibody diluted in PBS was added into the MSD plate, incubated for two hours at room temperature or overnight at 4° C. (in Day 4). 50 μL (3.9 μg/μL) of FLAG antibody plus 2.5 mL PBS, per 96 well plate, or 50 μL (3.9 μg/μL) anti-FLAG antibody plus 5 mL PBS per 384 well plate. The plates were centrifuged at 1000 rpm for 10 seconds and shaken with a plate shaker for 10 seconds.
Anti-FLAG antibody was discarded, and the wells were washed using multidrop, low speed, two times with 300 μL/well of wash buffer for a 96 well plate or three times with 70 μL/well of wash buffer for a 384 well plate. 50 μL/well of block buffer for a 96 well plate, or 25 μL/well of block buffer for a 384 well plate, was added and the plates were incubated for two hours at room temperature. The Block buffer was then discarded and the wells washed two times using multidrop, low speed, with 300 μL/well of wash buffer for a 96 well plate, or three times with 70 μL/well of wash buffer for a 384 well plate.
25 μL of cell lysate was transferred into a 96 well MSD plate, or 12.5 μL of cell lysate into 384 well MSD plate, and the plates were incubated for one hour at room temperature.
Note: The cell lysate should be thawed one hour prior to this step, the plate centrifuged at 1000 rpm for one minute, shaken for 30 seconds, and then unsealed for lysate transfer. […]

[2] = Metabolic stability in human liver microsomes (Biological Example 2); type: in vitro ADME; settings: hepatic clearance (CLhep) scaled from human liver microsomes, 1 μM, well-stirred model
Experimental: Metabolic stability of select compounds was evaluated in human liver microsomes (from Corning or XenoTech, LLC) using a 96-well plate assay format. Compounds were incubated at 37° C. at 1 μM final concentration in the microsomal matrix (0.5 mg/mL total protein) in the presence or absence of NADPH cofactor. An NADPH regenerating system, comprised of NADP, MgCl2, isocitric acid, and isocitrate dehydrogenase, was used in the assay. Enzymatic reactions were conducted for 0, 5, 10, 20, 30, or 60 min before termination by addition of acetonitrile containing tolbutamide and labetalol internal standards (100 ng/mL). After shaking for 10 min, plates were subjected to centrifugation (4000 rpm at 4° C.) for 20 min and supernatants mixed 1:3 with HPLC grade water. Samples were analyzed by LC-MS/MS using appropriate MRM transitions for each analyte and internal standard (IS). Analyte/IS peak area ratios were used to determine percent compound remaining at each time point. Intrinsic clearance (Clint; expressed as mL·min^−1·mg^−1) was calculated from the first order elimination constant (k, min^−1) of test article decay and the volume of the incubation. These values were scaled to intrinsic organ clearance (Clint) using human specific scaling factors (48.8 mg microsomal protein per g liver; 25.7 g liver per kg body weight). Organ Clint was subsequently converted to hepatic clearance, HLM, (CLhep, mL·min-1·kg-1) using the well-stirred model of hepatic elimination, where Qh is human hepatic blood flow (20.7 mL·min-1·kg-1).
CLhep is the projected human clearance in the liver based on the above in vitro assay. A lower value is indicative of less compound being removed by the liver.

Sequence of LRRK2 G2019S enzyme (Q5S007 whole entry G2019S): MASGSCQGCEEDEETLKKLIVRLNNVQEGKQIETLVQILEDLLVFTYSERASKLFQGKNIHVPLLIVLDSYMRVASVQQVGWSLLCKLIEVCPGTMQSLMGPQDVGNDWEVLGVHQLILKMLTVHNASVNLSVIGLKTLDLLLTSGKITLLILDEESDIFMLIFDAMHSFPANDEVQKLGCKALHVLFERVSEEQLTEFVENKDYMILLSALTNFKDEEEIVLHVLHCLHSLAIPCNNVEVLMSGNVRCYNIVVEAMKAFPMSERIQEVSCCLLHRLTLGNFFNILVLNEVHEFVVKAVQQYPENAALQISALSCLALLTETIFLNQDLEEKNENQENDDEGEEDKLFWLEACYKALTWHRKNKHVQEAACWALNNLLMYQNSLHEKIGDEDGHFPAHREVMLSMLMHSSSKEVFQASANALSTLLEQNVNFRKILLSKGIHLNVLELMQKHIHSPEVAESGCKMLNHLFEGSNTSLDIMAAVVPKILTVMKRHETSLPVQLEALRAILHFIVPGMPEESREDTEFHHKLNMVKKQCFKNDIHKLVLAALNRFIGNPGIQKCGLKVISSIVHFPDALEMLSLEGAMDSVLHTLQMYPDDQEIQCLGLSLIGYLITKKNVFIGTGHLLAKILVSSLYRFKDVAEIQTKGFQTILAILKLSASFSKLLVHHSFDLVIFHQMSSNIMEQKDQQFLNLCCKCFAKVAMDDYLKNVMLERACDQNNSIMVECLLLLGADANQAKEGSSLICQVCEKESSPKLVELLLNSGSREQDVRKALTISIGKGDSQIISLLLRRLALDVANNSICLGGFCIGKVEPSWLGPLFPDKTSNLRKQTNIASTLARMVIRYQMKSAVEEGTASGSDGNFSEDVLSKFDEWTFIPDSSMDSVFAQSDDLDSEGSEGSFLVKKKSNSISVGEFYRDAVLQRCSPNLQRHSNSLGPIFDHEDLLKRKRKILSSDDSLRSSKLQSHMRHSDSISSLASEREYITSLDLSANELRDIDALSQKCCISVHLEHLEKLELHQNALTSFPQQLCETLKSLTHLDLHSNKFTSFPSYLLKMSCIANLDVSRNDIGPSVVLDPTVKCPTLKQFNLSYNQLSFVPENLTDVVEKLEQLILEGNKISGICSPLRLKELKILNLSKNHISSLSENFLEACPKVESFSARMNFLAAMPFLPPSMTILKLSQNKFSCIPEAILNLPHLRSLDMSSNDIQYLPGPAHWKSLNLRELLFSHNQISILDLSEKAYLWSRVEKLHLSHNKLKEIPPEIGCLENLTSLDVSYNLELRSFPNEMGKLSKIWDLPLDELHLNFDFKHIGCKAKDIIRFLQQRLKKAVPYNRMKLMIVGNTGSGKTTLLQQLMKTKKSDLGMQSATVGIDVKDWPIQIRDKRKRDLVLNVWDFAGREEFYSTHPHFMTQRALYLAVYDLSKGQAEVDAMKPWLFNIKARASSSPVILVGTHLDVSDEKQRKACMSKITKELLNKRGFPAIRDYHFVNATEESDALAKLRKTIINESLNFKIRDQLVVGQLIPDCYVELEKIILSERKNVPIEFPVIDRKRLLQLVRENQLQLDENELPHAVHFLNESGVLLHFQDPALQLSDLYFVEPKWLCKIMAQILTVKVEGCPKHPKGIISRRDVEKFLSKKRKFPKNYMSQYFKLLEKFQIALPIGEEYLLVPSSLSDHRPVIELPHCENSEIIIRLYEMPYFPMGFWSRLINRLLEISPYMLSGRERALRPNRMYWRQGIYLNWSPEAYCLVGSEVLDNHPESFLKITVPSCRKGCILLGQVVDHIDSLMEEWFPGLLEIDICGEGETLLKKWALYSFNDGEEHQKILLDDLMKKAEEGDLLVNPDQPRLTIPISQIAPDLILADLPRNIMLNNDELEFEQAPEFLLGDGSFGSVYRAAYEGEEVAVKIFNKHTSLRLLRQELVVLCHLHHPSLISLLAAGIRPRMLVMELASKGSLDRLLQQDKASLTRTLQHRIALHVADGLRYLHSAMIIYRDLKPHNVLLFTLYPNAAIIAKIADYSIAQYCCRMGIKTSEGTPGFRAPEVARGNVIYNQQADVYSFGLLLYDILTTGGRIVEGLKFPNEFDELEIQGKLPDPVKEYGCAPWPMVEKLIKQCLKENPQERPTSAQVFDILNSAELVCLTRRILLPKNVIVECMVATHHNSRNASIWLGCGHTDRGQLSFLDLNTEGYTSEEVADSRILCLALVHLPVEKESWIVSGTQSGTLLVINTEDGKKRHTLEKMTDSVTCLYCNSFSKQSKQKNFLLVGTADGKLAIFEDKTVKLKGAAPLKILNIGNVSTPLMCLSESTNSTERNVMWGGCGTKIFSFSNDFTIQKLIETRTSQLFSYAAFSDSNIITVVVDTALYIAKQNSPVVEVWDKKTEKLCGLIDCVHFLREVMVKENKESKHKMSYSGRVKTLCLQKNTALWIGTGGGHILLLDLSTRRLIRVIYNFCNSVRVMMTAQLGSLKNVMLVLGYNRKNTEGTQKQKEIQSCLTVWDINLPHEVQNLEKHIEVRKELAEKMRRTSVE
T1 sequence (Q5S007 whole entry G2019S): as above

| Structure (SMILES) | IC50 (LRRK2 G2019S enzyme) [nM] | IC50 [1] [nM] | HLM Avg [2] [mL/min/kg] |
| --- | --- | --- | --- |
| CNc1nc(Nc2cn([C@@H]3C[C@@H]3C(N)=O)nc2C2CC2)ncc1C(F)(F)F (single isomer, unassigned) [Example 2, (1,2-cis)-2-(3-cyclopropyl-4-((4-(methylamino)-5-(trifluoromethyl)pyrimidin-2-yl)amino)-1H-pyrazol-1-yl)cyclopropanecarboxamide] | 2.8 | 3.06 |  |
| CCNc1nc(Nc2cn(C3C[C@@]3(C)C(N)=O)nc2C)ncc1Br (single isomer, unassigned) [Example 3, (1,2-cis)-2-(4-((5-bromo-4-(ethylamino)pyrimidin-2-yl)amino)-3-methyl-1H-pyrazol-1-yl)-1-methylcyclopropanecarboxamide] | 2.28 | 10.5 |  |
| CCNc1nc(Nc2cn([C@@H]3C[C@@H]3C(N)=O)nc2C2CC2)ncc1C(F)(F)F (single isomer, unassigned) [Example 8, (1,2-cis)-2-(3-cyclopropyl-4-((4-(ethylamino)-5-(trifluoromethyl)pyrimidin-2-yl)amino)-1H-pyrazol-1-yl)cyclopropanecarboxamide] | 1.11 | 4.94 |  |

Second part, the compound after the results:

| IC50 (LRRK2 G2019S enzyme) [nM] | IC50 [1] [nM] | HLM Avg [2] [mL/min/kg] | Structure (SMILES) |
| --- | --- | --- | --- |
| 1.03 | 1.79 | 6.4 | Cc1nn(C2C[C@@]2(C)C(N)=O)cc1Nc1ncc(C(F)(F)F)c(NC2(C)CC2)n1 (single isomer, unassigned) [Example 1, (1,2-cis)-1-methyl-2-(3-methyl-4-((4-((1-methylcyclopropyl)amino)-5-(trifluoromethyl)pyrimidin-2-yl)amino)-1H-pyrazol-1-yl)cyclopropanecarboxamide] |
| 1.49 | 3 | 8.9 | Cc1nn(C2C[C@]2(C)C(N)=O)cc1Nc1ncc(C(F)(F)F)c(NC2(C)CC2)n1 (single isomer, unassigned) [Example 4, (1,2-cis)-1-methyl-2-(3-methyl-4-((4-((1-methylcyclopropyl)amino)-5-(trifluoromethyl)pyrimidin-2-yl)amino)-1H-pyrazol-1-yl)cyclopropanecarboxamide] |
| 0.92 | 5.12 | 11 | CCNc1nc(Nc2cn([C@@H]3C[C@]3(C)C(N)=O)nc2C2CC2)ncc1C(F)(F)F (single isomer, unassigned) [Example 5, (1,2-cis)-2-(3-cyclopropyl-4-((4-(ethylamino)-5-(trifluoromethyl)pyrimidin-2-yl)amino)-1H-pyrazol-1-yl)-1-methylcyclopropanecarboxamide] |
| 1.23 | 5.79 |  | Cc1nn(C2C[C@]2(C)C(N)=O)cc1Nc1ncc(C(F)(F)F)c(NC2CC2)n1 (single isomer, unassigned) [Example 6, (1,2-cis)-2-(4-((4-(cyclopropylamino)-5-(trifluoromethyl)pyrimidin-2-yl)amino)-3-methyl-1H-pyrazol-1-yl)-1-methylcyclopropanecarboxamide] |
